The text below walks through data of patent US7728037B2, “Alpha-ketoglutarates of active ingredients and compositions containing same” (Sigma-Tau Industrie Farmaceutiche Riunite S.p.A., priority 2001, dated 2010).

For the test, the system named is rabbit heart papillary muscle subjected to hypoxia. Nature of the test: Metabolic tests: ATP concentrations in rabbit heart papillary muscle subjected to hypoxia after oral treatment. It is filed as in vivo. The note with it: 1 g/kg by mouth or equimolecular doses, three consecutive days; tissue held anoxic for 90 minutes; untreated controls 1.70±0.68 to 0.46±0.071. The text has this:
After three consecutive days of treatment, sections of papillary muscle were isolated from the rabbit hearts and were perfused in a thermostatized bath with a saturated solution of 100% O2.

In turn, `C[N+](C)(C)C[C@H](O)CC(=O)[O-]` [L-carnitine] returned an ATP concentrations in papillary muscle after hypoxia of 0.59 ± 0.31 µmol/g tissue.

L-carnitine alpha-ketoglutarate returned an ATP concentrations in papillary muscle after hypoxia of 1.48 ± 0.72 µmol/g tissue.
